{"source": "PubChem BioAssay AID179", "about": "(DTP/NCI, 2004)", "system": "CEM cells HIV-1 protection, formazan growth assay", "test": "NCI AIDS Antiviral Assay", "settings": "for IC50: measured here: growth of uninfected CEM cells", "summary_of_the_method": "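Protection of CEM cells against HIV-1 measured as cell growth via soluble formazan read-out, with five concentrations tested on both infected and uninfected cells; failure to protect may reflect toxicity.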", "note": "Where “and” joins values, the source holds several entries; their conditions need not be identical. Equal values may be shown once. Calls of active or inactive are those of the source.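 Rule for the calls: active = compounds giving half or more protection of infected cells from virus-caused growth loss, again on retest; inactive = the rest.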", "data": [{"smiles": "Clc1cccc(NC2=NCCN=C(Nc3cccc(Cl)c3)SS2)c1", "values": [{"measurement": "outcome", "result": "inactive"}]}, {"smiles": "C[C@@H]1C2(O)CC34CC(=O)OC3(C[C@@H](O)[C@H]4C)C1(C)CO2", "note": "(some centres undefined)", "values": [{"measurement": "EC50", "result": "> 891", "unit": "µM"}, {"measurement": "IC50", "result": "> 891", "unit": "µM"}]}, {"smiles": "COc1cc(C2C(C(=O)Nc3ccc(Cl)c(Cl)c3)=C(C)NC(C)=C2C(=O)Nc2ccc(Cl)c(Cl)c2)ccc1O", "values": [{"measurement": "EC50", "result": "> 22.4", "unit": "µM"}, {"measurement": "IC50", "result": 12.6, "unit": "µM"}]}, {"smiles": "C=CCCON(C(=O)OC(C)(C)C)c1ccccc1", "values": [{"measurement": "EC50", "result": "> 200", "unit": "µM"}, {"measurement": "IC50", "result": 57.5, "unit": "µM"}]}, {"smiles": "CCCCCCCCCC(O)CC(=O)c1c(O)cccc1O", "note": "(centres undefined)", "values": [{"measurement": "EC50", "result": "> 200", "unit": "µM"}, {"measurement": "IC50", "result": 32.4, "unit": "µM"}]}, {"smiles": "O=C1CCCCC1CN(Cc1ccccc1)Cc1ccccc1", "note": "(centres undefined)", "values": [{"measurement": "outcome", "result": "inactive"}]}, {"smiles": "O=C(O)[C@@H]1CSC(C(O)CO)N1", "note": "(some centres undefined)", "values": [{"measurement": "EC50", "result": "> 200", "unit": "µM"}, {"measurement": "IC50", "result": "> 200", "unit": "µM"}]}, {"smiles": "COc1ccc(-c2nnc3cc(C)n4nnnc4n23)cc1OC", "values": [{"measurement": "EC50", "result": "> 200", "unit": "µM"}, {"measurement": "IC50", "result": "> 200", "unit": "µM"}]}, {"smiles": "CC1CN1c1c(C(=O)/C=C/c2ccccc2)c(-c2ccccc2)nn(C)c1=O", "note": "(centres undefined)", "values": [{"measurement": "EC50", "result": "> 67.6", "unit": "µM"}, {"measurement": "IC50", "result": 12.6, "unit": "µM"}]}, {"smiles": "C=C1CCc2occ(C)c2C2C1C1=C(CC(C)C1=O)C1OC12C", "note": "(centres undefined)", "values": [{"measurement": "EC50", "result": "> 219", "unit": "µM"}, {"measurement": "IC50", "result": "> 219", "unit": "µM"}]}, {"smiles": "NC(=S)NNC(=O)/C(=C/c1ccc(/C=C(\\NC(=O)c2ccccc2)C(=O)NNC(N)=S)cc1)NC(=O)c1ccccc1", "values": [{"measurement": "EC50", "result": "> 8.71", "unit": "µM"}, {"measurement": "IC50", "result": "> 8.71", "unit": "µM"}]}, {"smiles": "CCCCCCCCOCC(O)COC(=O)CCCCCCC", "note": "(centres undefined)", "values": [{"measurement": "EC50", "result": "> 251", "unit": "µM"}, {"measurement": "IC50", "result": 20.9, "unit": "µM"}]}, {"smiles": "C(/C=C/Nc1ccc(Oc2ccccc2)cc1)=Nc1ccc(Oc2ccccc2)cc1", "values": [{"measurement": "EC50", "result": "> 200", "unit": "µM"}, {"measurement": "IC50", "result": 9.33, "unit": "µM"}]}, {"smiles": "CC(C)C12C=C3CCC4C(C)(C(=O)O)CCCC4(C)C3(CC1)OO2", "note": "(centres undefined)", "values": [{"measurement": "EC50", "result": "> 741", "unit": "µM"}, {"measurement": "IC50", "result": 162, "unit": "µM"}]}, {"smiles": "COC(=O)C(=O)C(C(=O)C=C(C)C)C(=O)C(=O)Nc1ccc(Cl)cc1C", "note": "(centres undefined)", "values": [{"measurement": "outcome", "result": "inactive"}]}, {"smiles": "CC(C)CCCC(C)C1CCC2C3CC(OC4OC(CO)C(O)C(O)C4O)C4C[C@@H](OS(=O)(=O)O)CC[C@]4(C)C3CC[C@]12C", "note": "(some centres undefined)", "values": [{"measurement": "EC50", "result": "> 37.2", "unit": "µM"}, {"measurement": "IC50", "result": 15.1, "unit": "µM"}]}, {"smiles": "CCCCCCCCCCCCCCCCNC(=O)/C(=C\\c1ccccc1O)NC(=O)c1ccccc1", "values": [{"measurement": "EC50", "result": "> 200", "unit": "µM"}, {"measurement": "IC50", "result": "> 200", "unit": "µM"}]}, {"smiles": "C=C(C)C(=O)OC1CC2=CC(CC3(C)OC3C3OC(=O)C(=C)C13)OC2=O", "note": "(centres undefined)", "values": [{"measurement": "EC50", "result": "> 200", "unit": "µM"}, {"measurement": "IC50", "result": 2.4, "unit": "µM"}]}, {"smiles": "CCCCCC=C(c1cc(Br)cc(C(=O)O)c1O)c1cc(Br)cc(C(=O)O)c1O", "values": [{"measurement": "EC50", "result": "> 166", "unit": "µM"}, {"measurement": "IC50", "result": 15.8, "unit": "µM"}]}, {"smiles": "O=C1NN2CCN=C2c2cccnc21", "values": [{"measurement": "EC50", "result": "> 1320", "unit": "µM"}, {"measurement": "IC50", "result": "> 1320", "unit": "µM"}]}, {"smiles": "CN=C(NCCCOC)c1ccc(NC(=O)c2ccc(C(=O)Nc3ccc(C(=NC)NCCCOC)cc3)c([N+](=O)[O-])c2)cc1", "values": [{"measurement": "EC50", "result": "> 200", "unit": "µM"}, {"measurement": "IC50", "result": 19.1, "unit": "µM"}]}, {"smiles": "COc1cc2c(c(OC)c1OC)-c1ccc(SC)c(=O)cc1C(NC(=O)c1ccccc1)CC2", "note": "(centres undefined)", "values": [{"measurement": "EC50", "result": "> 2", "unit": "µM"}, {"measurement": "IC50", "result": 0.000708, "unit": "µM"}]}, {"smiles": "C=CC1ON(Cc2ccccc2)CCc2cc(OC)c(OC)cc21", "note": "(centres undefined)", "values": [{"measurement": "EC50", "result": "> 200", "unit": "µM"}, {"measurement": "IC50", "result": 40.7, "unit": "µM"}]}, {"smiles": "C/C=C1\\CN2CCC34c5ccccc5N(C)C35OCC4(C(=O)OC)C1CC25", "note": "(centres undefined)", "values": [{"measurement": "EC50", "result": "> 83.2", "unit": "µM"}, {"measurement": "IC50", "result": 25.7, "unit": "µM"}]}, {"smiles": "CCCCS/C(=C(/C#N)C(N)=O)c1cc2c([nH]1)CCCC2", "values": [{"measurement": "outcome", "result": "inactive"}]}, {"smiles": "CC1(C)CC(C)(Br)C(Br)C(=O)C1C(O)(C(F)(F)F)C(F)(F)F", "note": "(centres undefined)", "values": [{"measurement": "EC50", "result": "> 200", "unit": "µM"}, {"measurement": "IC50", "result": 33.1, "unit": "µM"}]}, {"smiles": "Cc1cc(C)c(C2CNCc3cc4c(cc32)CNCC4c2c(C)cc(C)cc2C)c(C)c1", "note": "(centres undefined)", "values": [{"measurement": "EC50", "result": "> 20", "unit": "µM"}, {"measurement": "IC50", "result": 2.57, "unit": "µM"}]}, {"smiles": "Brc1cscc1Cc1cscc1Br", "values": [{"measurement": "EC50", "result": "> 200", "unit": "µM"}, {"measurement": "IC50", "result": 74.1, "unit": "µM"}]}, {"smiles": "CCOc1ccccc1N=Nc1c(-c2ccccc2)nn(C(=O)CC(=O)Nc2cccc(C)c2)c1-c1ccccc1", "values": [{"measurement": "EC50", "result": "> 25.1", "unit": "µM"}, {"measurement": "IC50", "result": "> 25.1", "unit": "µM"}]}, {"smiles": "COC(=O)C1=CC(O)CCC1c1ccc(OC)cc1", "note": "(centres undefined)", "values": [{"measurement": "EC50", "result": "> 363", "unit": "µM"}, {"measurement": "IC50", "result": "> 363", "unit": "µM"}]}, {"smiles": "C=C(C)C(=O)N1c2ccc(OC)cc2CC1C(=O)OCC", "note": "(centres undefined)", "values": [{"measurement": "EC50", "result": "> 200", "unit": "µM"}, {"measurement": "IC50", "result": "> 200", "unit": "µM"}]}, {"smiles": "CN(C)Cc1cc(N=Nc2ccc(Cl)c(Cl)c2)ccc1O", "values": [{"measurement": "EC50", "result": "> 200", "unit": "µM"}, {"measurement": "IC50", "result": 18.6, "unit": "µM"}]}, {"smiles": "CCCO/N=C\\c1c2c(O)c3c(O)c(C)c4c(c3c1O)C(=O)C(C)(O/C=C\\C(OC)C(C)C(OC(C)=O)C(C)C(O)C(C)C(O)C(C)/C=C\\C=C(\\C)C(=O)N2)O4", "note": "(centres undefined)", "values": [{"measurement": "EC50", "result": "> 100", "unit": "µM"}, {"measurement": "IC50", "result": 5.25, "unit": "µM"}]}, {"smiles": "O=c1c2ccccc2[nH]c2c(Cl)cc(Cl)c(NC3CCCCC3)c12", "values": [{"measurement": "EC50", "result": "> 200", "unit": "µM"}, {"measurement": "IC50", "result": 28.2, "unit": "µM"}]}, {"smiles": "CC1=CCCC2C(C=O)(C1)CC(C)C2(CO)CC/C(=C/CO)CO", "note": "(centres undefined)", "values": [{"measurement": "outcome", "result": "inactive"}]}, {"smiles": "Cc1cc(-c2ccccc2)[s+]s1", "values": [{"measurement": "EC50", "result": "> 200", "unit": "µM"}, {"measurement": "IC50", "result": "89.1 µM and 174 µM"}]}, {"smiles": "NC(N)=NCCN1CC2CCC(CC2)C1", "values": [{"measurement": "EC50", "result": 61.7, "unit": "µM"}, {"measurement": "IC50", "result": 151, "unit": "µM"}]}, {"smiles": "COc1ccc(C2=C(OC(C)=O)c3cccn3-c3ccccc3S2)cc1", "values": [{"measurement": "EC50", "result": "> 200", "unit": "µM"}, {"measurement": "IC50", "result": 1.32, "unit": "µM"}]}, {"smiles": "Cc1ccc(N=Nc2ccc(O)c(CN(C)C)c2)cc1C", "values": [{"measurement": "EC50", "result": "> 200", "unit": "µM"}, {"measurement": "IC50", "result": 17.4, "unit": "µM"}]}, {"smiles": "COc1ccc(Cc2nnc(Nc3ccc(Br)cc3)[nH]c2=O)cc1OC", "values": [{"measurement": "EC50", "result": "> 200", "unit": "µM"}, {"measurement": "IC50", "result": 33.9, "unit": "µM"}]}, {"smiles": "CC(=O)c1sc2n(C)c(=O)c3ccccc3[n+]2c1C", "values": [{"measurement": "EC50", "result": "> 200", "unit": "µM"}, {"measurement": "IC50", "result": "> 200", "unit": "µM"}]}, {"smiles": "CC(=O)Nc1cnc2c(nc3cc(C)ccn32)c1C", "values": [{"measurement": "EC50", "result": "> 74.1", "unit": "µM"}, {"measurement": "IC50", "result": "> 74.1", "unit": "µM"}]}, {"smiles": "Brc1cc(C2OCCCO2)ccc1OCc1ccccc1", "values": [{"measurement": "EC50", "result": "> 53.7", "unit": "µM"}, {"measurement": "IC50", "result": "> 53.7", "unit": "µM"}]}, {"smiles": "COc1cc2c(cc1OC)C1Cc3sccc3CN1CC2", "note": "(centres undefined)", "values": [{"measurement": "outcome", "result": "inactive"}]}, {"smiles": "Clc1cc(Cl)nc(Nc2ccc3c(c2)CCC3)n1", "values": [{"measurement": "EC50", "result": "> 200", "unit": "µM"}, {"measurement": "IC50", "result": 28.2, "unit": "µM"}]}]}
